target: T1, human neutrophil elastase (HNE) (Homo sapiens, UniProt P08246); experiment: HNE enzyme activity assay (fluorogenic peptide substrate MeOSuc-Ala-Ala-Pro-Val-AMC); assay type: biochemical; conditions: human leukocyte elastase 0.00072 U/mL, substrate 100 μM, 25° C., 30 minutes, pH 7.5; at least two separate experiments; read-out: FINE inhibition (HNE enzyme inhibition, IC50 values)
T1 construct: purchased Sigma E8140
T1 sequence (P08246 30-247 limits assumed): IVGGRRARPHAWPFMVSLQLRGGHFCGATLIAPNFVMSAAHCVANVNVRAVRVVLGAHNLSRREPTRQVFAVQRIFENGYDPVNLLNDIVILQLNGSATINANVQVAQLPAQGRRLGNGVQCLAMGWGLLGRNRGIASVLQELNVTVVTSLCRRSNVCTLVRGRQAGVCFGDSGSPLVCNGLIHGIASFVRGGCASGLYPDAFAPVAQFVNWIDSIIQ
Experimental: Compounds of this invention were tested for potency in a human neutrophil elastase (HNE) enzyme activity assay.
Assays were performed in 96-well plates in a total assay volume of 100 μL. The final concentration of elastase enzyme (human leukocyte elastase, Sigma E8140) was 0.00072 U/mL. The peptide substrate (MeOSuc-Ala-Ala-Pro-Val-AMC, Calbiochem #324740) was used at a final concentration of 100 μM. The final concentration of DMSO was 1% in the assay buffer (0.05M Tris.HCl, 0.1M NaCl, 0.1M CaCl2, 0.0005% brij-35, pH 7.5). The enzymatic reaction was started by addition of the enzyme and incubated at 25° C. for 30 minutes. After incubation, the reaction was stopped by addition of soybean trypsin inhibitor (Sigma T9003) at a final concentration of 50 μg/well. Fluorescence was measured using a Molecular Devices fluorescence plate reader using 380 nm excitation and 460 nm emission wavelengths.
A dose response to each compound was performed and the effect of compound in each experiment was expressed as a percentage inhibition of the control enzyme fluorescence. Dose response curves were plotted and compound potency (IC50) was determined. Compounds were tested in at least two separate experiments.

Compound	IC50 [nM]
Cc1c(-c2ccnn2-c2ccc(C#N)cc2)n(C(=O)NCCS(C)(=O)=O)c(=O)n1-c1cccc(C(F)(F)F)c1 [Example 13, 5-[1-(4-Cyanophenyl)-1H-pyrazol-5-yl]-4-methyl-N-[2-(methylsulfonyl)ethyl]-2-oxo-3-[3-(trifluoromethyl)phenyl]-2,3-dihydro-1H-imidazole-1-carboxamide]	< 1
Cc1c(-c2ccnn2-c2ccc(C#N)cc2)n(CC(=O)OC(C)(C)C)c(=O)n1-c1cccc(C(F)(F)F)c1 [Example 20, tert-Butyl-{5-[1-(4-cyanophenyl)-1H-pyrazol-5-yl]-4-methyl-2-oxo-3-[3-(trifluoromethyl)phenyl]-2,3-dihydro-1H-imidazol-1-yl}acetate]	10 to 50
Cc1c(-c2ccnn2-c2ccc(C#N)cc2)n(C(=O)NC2CCOC2)c(=O)n1-c1cccc(C(F)(F)F)c1 (stereo not drawn) [Example 14, 5-[1-(4-Cyanophenyl)-1H-pyrazol-5-yl]-4-methyl-2-oxo-N-(tetrahydrofuran-3-yl)-3-[3-(trifluoromethyl)phenyl]-2,3-dihydro-1H-imidazole-1-carboxamide]	< 1
CCCS(=O)(=O)n1c(-c2ccnn2-c2ccc(C#N)cc2)c(C)n(-c2cccc(C(F)(F)F)c2)c1=O [Example 31, 4-{5-[5-Methyl-2-oxo-3-(propane-1-sulfonyl)-1-(3-trifluoromethyl-phenyl)-2,3-dihydro-1H-imidazol-4-yl]-pyrazol-1-yl}-benzonitrile]	1 to 10
CCOC(=O)n1c(-c2ccnn2-c2ccc(C#N)cc2)c(C)n(-c2cccc(C(F)(F)F)c2)c1=O [Example 4, Ethyl-5-[1-(4-cyanophenyl)-1H-pyrazol-5-yl]-4-methyl-2-oxo-3-[3-(trifluoromethyl)phenyl]-2,3-dihydro-1H-imidazole-1-carboxylate]	< 1
CCCCC(=O)n1c(-c2ccnn2-c2ccc(C#N)cc2)c(C)n(-c2cccc(C(F)(F)F)c2)c1=O [Example 19, 4-(5-{5-Methyl-2-oxo-3-pentanoyl-1-[3-(trifluoromethyl)phenyl]-2,3-dihydro-1H-imidazol-4-yl}-1H-pyrazol-1-yl)benzonitrile]	< 1
Cc1c(-c2ccnn2-c2ccc(C#N)cc2)n(C(=O)NCCCO)c(=O)n1-c1cccc(C(F)(F)F)c1 [Example 8, 5-[1-(4-Cyanophenyl)-1H-pyrazol-5-yl]-N-(3-hydroxypropyl)-4-methyl-2-oxo-3-[3-(trifluoromethyl)phenyl]-2,3-dihydro-1H-imidazole-1-carboxamide]	< 1
COC(=O)n1c(-c2ccnn2-c2ccc(C#N)cc2)c(C)n(-c2cccc(C(F)(F)F)c2)c1=O [Example 18, Methyl-5-[1-(4-cyanophenyl)-1H-pyrazol-5-yl]-4-methyl-2-oxo-3-[3-(trifluoromethyl)phenyl]-2,3-dihydro-1H-imidazole-1-carboxylate]	< 1
Cc1c(-c2ccnn2-c2ccc(C#N)cc2)n(CCCS(C)(=O)=O)c(=O)n1-c1cccc(C(F)(F)F)c1 [Example 2, 4-(5-{5-Methyl-3-[3-(methylsulfonyl)propyl]-2-oxo-1-[3-(trifluoromethyl)phenyl]-2,3-dihydro-1H-imidazol-4-yl}-1H-pyrazol-1-yl)benzonitrile]	1 to 10
CCCC(C)n1c(-c2ccnn2-c2ccc(C#N)cc2)c(C)n(-c2cccc(C(F)(F)F)c2)c1=O (stereo not drawn) [Example 28, 4-{5-[5-Methyl-3-(1-methyl-butyl)-2-oxo-1-(3-trifluoromethyl-phenyl)-2,3-dihydro-1H-imidazol-4-yl]pyrazol-1-yl}-benzonitrile]	1 to 10
Cc1c(-c2ccnn2-c2ccc(C#N)cc2)n(C(=O)N[C@@H]2CCOC2)c(=O)n1-c1cccc(C(F)(F)F)c1 [Example 16, 5-[1-(4-Cyanophenyl)-1H-pyrazol-5-yl]-4-methyl-2-oxo-N-[(3R)-tetrahydrofuran-3-yl]-3-[3-(trifluoromethyl)phenyl]-2,3-dihydro-1H-imidazole-1-carboxamide]	< 1
Cc1c(-c2ccnn2-c2ccc(C#N)cc2)[nH]c(=O)n1-c1cccc(C(F)(F)F)c1 [Example 1, 4-(5-{5-Methyl-2-oxo-1-[3-(trifluoromethyl)phenyl]-2,3-dihydro-1H-imidazol-4-yl}-1H-pyrazol-1-yl)benzonitrile]	10 to 50
Cc1c(-c2ccnn2-c2ccc(C#N)cc2)n(CC(=O)O)c(=O)n1-c1cccc(C(F)(F)F)c1 [Example 22, {5-[1-(4-Cyanophenyl)-1H-pyrazol-5-yl]-4-methyl-2-oxo-3-[3-(trifluoromethyl)phenyl]-2,3-dihydro-1H-imidazol-1-yl}acetic acid]	10 to 50
Cc1c(-c2ccnn2-c2ccc(C#N)cc2)n(C(=O)NCCO)c(=O)n1-c1cccc(C(F)(F)F)c1 [Example 7, 5-[1-(4-Cyanophenyl)-1H-pyrazol-5-yl]-N-(2-hydroxyethyl)-4-methyl-2-oxo-3-[3-(trifluoromethyl)phenyl]-2,3-dihydro-1H-imidazole-1-carboxamide]	1 to 10

Next, values leading:

IC50 [nM]	Compound
1 to 10	Cc1c(-c2ccnn2-c2ccc(C#N)cc2)n(CC(=O)N(C)C2CCC2)c(=O)n1-c1cccc(C(F)(F)F)c1 [Example 40, 2-[5-[2-(4-Cyano-phenyl)-2H-pyrazol-3-yl]-4-methyl-2-oxo-3-(3-trifluoromethyl-phenyl)-2,3-dihydro-imidazol-1-yl]-N-cyclobutyl-N-methyl-acetamide]
1 to 10	Cc1c(-c2ccnn2-c2ccc(C#N)cc2)n(CC(=O)N(C)C)c(=O)n1-c1cccc(C(F)(F)F)c1 [Example 37, 2-[5-[2-(4-Cyano-phenyl)-2H-pyrazol-3-yl]-4-methyl-2-oxo-3-(3-trifluoromethyl-phenyl)-2,3-dihydro-imidazol-1-yl]-N,N-dimethyl-acetamide]
< 1	Cc1c(-c2ccnn2-c2ccc(C#N)cc2)n(S(=O)(=O)NC2CCCC2)c(=O)n1-c1cccc(C(F)(F)F)c1 [Example 34, 5-[2-(4-Cyano-phenyl)-2H-pyrazol-3-yl]-4-methyl-2-oxo-3-(3-trifluoromethylphenyl)-2,3-dihydro-imidazole-1-sulfonic acid cyclopentylamide]
1 to 10	Cc1c(-c2ccnn2-c2ccc(C#N)cc2)n(C(=O)NCc2ccccn2)c(=O)n1-c1cccc(C(F)(F)F)c1 [Example 49, 5-[2-(4-Cyano-phenyl)-2H-pyrazol-3-yl]-4-methyl-2-oxo-3-(3-trifluoromethyl-phenyl)-2,3-dihydro-imidazole-1-carboxylic acid (pyridin-2-ylmethyl)-amide]
1 to 10	Cc1c(-c2ccnn2-c2ccc(C#N)cc2)n(S(=O)(=O)NC2CC2)c(=O)n1-c1cccc(C(F)(F)F)c1 [Example 35, 5-[2-(4-Cyano-phenyl)-2H-pyrazol-3-yl]-4-methyl-2-oxo-3-(3-trifluoromethylphenyl)-2,3-dihydro-imidazole-1-sulfonic acid cyclopropylamide]
> 50	Cc1c(-c2ccnn2-c2ccc(C#N)cc2S(C)(=O)=O)[nH]c(=O)n1-c1cccc(C(F)(F)F)c1 [Example 55, 3-Methanesulfonyl-4-{5-[5-methyl-2-oxo-1-(3-trifluoromethyl-phenyl)-2,3-dihydro-1H-imidazol-4-yl]-pyrazol-1-yl}-benzonitrile]
< 1	Cc1c(-c2ccnn2-c2ccc(C#N)cc2)n(S(=O)(=O)C2CC2)c(=O)n1-c1cccc(C(F)(F)F)c1 [Example 32, 4-{5-[3-Cyclopropanesulfonyl-5-methyl-2-oxo-1-(3-trifluoromethyl-phenyl)-2,3-dihydro-1H-imidazol-4-yl]-pyrazol-1-yl}-benzonitrile]
< 1	Cc1c(-c2ccnn2-c2ccc(C#N)cc2)n(C(=O)NC2CC2)c(=O)n1-c1cccc(C(F)(F)F)c1 [Example 42, 5-[2-(4-Cyano-phenyl)-2H-pyrazol-3-yl]-4-methyl-2-oxo-3-(3-trifluoromethyl-phenyl)-2,3-dihydro-imidazole-1-carboxylic acid cyclopropylamide]
1 to 10	Cc1c(-c2ccnn2-c2ccc(C#N)cc2)n(C(=O)NCc2cccnc2)c(=O)n1-c1cccc(C(F)(F)F)c1 [Example 50, 5-[2-(4-Cyano-phenyl)-2H-pyrazol-3-yl]-4-methyl-2-oxo-3-(3-trifluoromethyl-phenyl)-2,3-dihydro-imidazole-1-carboxylic acid (pyridin-3-ylmethyl)-amide]
< 1	Cc1c(-c2ccnn2-c2ccc(C#N)cc2)n(C(=O)N[C@H]2CCN(C)C2)c(=O)n1-c1cccc(C(F)(F)F)c1 [Example 47, 5-[2-(4-Cyano-phenyl)-2H-pyrazol-3-yl]-4-methyl-2-oxo-3-(3-trifluoromethyl-phenyl)-2,3-dihydro-imidazole-1-carboxylic acid ((S)-1-methyl-pyrrolidin-3-yl)-amide]

Source: patent publication US9409870B2, “Compounds” (CHIESI FARMACEUTICI S.p.A., priority 2014, dated 2016)
